The values below come from patent EP0364819A2, “LHRH analogs” (The Administrators of The Tulane Educational Fund, priority 1988, dated 1990).

Assay [1] deals with dispersed rat pituitary cell superfusion system. Briefly: LH release in dispersed rat pituitary cell superfusion system (LHRH agonistic activity). Format: cell-based. The conditions noted are these: peptide infused for 3 minutes at various concentration; LH released compared to that released by 3 nM LHRH.
Protocol: The ability of compounds to influence LH release in vitro is assayed by using a superfused rat pituitary cell system [S. Vigh and A. V. Schally, Peptides, 5 Suppl.
The peptide was infused for 3 minutes at various concentration, and the amount of LH released was compared to that released by 3 nM LHRH.
The target of assay [2] is T1, membrane receptors of human breast cancer cells (Homo sapiens, UniProt P30968).
T1 construct: human prostate and breast cancer cell membranes; endogenous in cells
T1 sequence (P30968 1-328): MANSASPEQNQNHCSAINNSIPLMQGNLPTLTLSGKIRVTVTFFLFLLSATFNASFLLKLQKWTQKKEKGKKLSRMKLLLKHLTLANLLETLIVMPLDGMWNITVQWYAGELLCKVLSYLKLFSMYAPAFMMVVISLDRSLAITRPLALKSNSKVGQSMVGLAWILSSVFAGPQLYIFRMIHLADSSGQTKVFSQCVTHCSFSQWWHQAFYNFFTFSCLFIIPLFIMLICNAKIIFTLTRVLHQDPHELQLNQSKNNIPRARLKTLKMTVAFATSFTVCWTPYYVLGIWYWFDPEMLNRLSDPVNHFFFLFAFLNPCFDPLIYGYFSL
The assay is described as follows: Receptor binding to human breast cancer cell membranes with 125I-labeled [D-Trp6]LHRH. As to conditions: high affinity binding sites, ¹²⁵l-labeled [D-Trp⁶]LHRH. On the procedure:
(c)Affinity for peptides to human prostate and breast cancer cell membranes.
(§1) This is determined by using labelled LHRH and [D-Trp⁶]LHRH. The assay is carried out similarly to that described by T. Kadar et al., Proc. Natl. Acad. Sci. USA, 85, 890-894 (1988).
(§2) Table 2 presents the antiovulatory activity of the claimed compounds having LHRH-inhibiting properties. The inhibitory action was determined in vivo, in 4-day cycling rats as described [A. Corbin and C. W. Beattie, Endocr. Res. Commun., 2, 1-23 (1975)]. Affinities of the claimed compounds to membrane receptors of rat pituitary and human breast cancer cells are also given in Tables 1 and 2 as determined by using [[…],D-Trp⁶]LHRH.

In assay [3] the target is T2, membrane receptors of rat pituitary (Rattus norvegicus, UniProt P30969).
T2 construct: membrane receptors of rat pituitary; from tissue; host or cells: rat pituitary membranes
T2 sequence (P30969 1-327): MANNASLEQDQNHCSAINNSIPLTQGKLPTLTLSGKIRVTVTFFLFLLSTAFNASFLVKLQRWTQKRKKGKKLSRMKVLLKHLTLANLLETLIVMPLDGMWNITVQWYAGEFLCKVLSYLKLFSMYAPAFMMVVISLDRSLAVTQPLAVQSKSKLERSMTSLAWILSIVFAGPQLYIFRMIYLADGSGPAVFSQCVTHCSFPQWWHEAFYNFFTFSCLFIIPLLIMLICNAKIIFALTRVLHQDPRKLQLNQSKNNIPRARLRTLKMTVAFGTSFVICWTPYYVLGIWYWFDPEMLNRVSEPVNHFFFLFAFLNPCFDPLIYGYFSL
Briefly: Receptor binding to rat pituitary membranes with 125I-labeled [D-Trp6]LHRH. The conditions noted are these: high affinity binding sites, pituitary of male rats, ¹²⁵l-labeled [D-Trp⁶]LHRH. On the procedure:
as §1, §2

Assay [4] concerns rat mammary tumor cell line MT-4. The assay is described as follows: Inhibition of 3H-thymidine incorporation into DNA of MT-4 monolayer cultures. The format is cell-based. As to conditions: for DPM/Well x1000: mean +/- standard error. On the procedure: (d) Ability of peptides of Formula I to inhibit incorporation of [³H]thymidine into DNA of monolayer cultures the rat mammary tumor cell line MT-4
This is assayed as described [V. K. Sondak et al., Cancer Research, 44, 1725-1728 (1984); F. Holzel et al., J. Cancer Res. Clin. Oncol. 109, 217-226 (1985); M. Albert et al., J. Cancer Res. Clin. Oncol. 109, 210-216 (1985)].
To obtain information about the cytotoxic properties of the compounds, the inhibition of ³H-thymidine incorporation into DNA of monolayer cultures of the rat mammary tumor cell line MT-4 was studied. Experiments started with 100 K MT-4 cells/plate on day 0. Dose was changed 3 times, total incubation time with the sample was 5 days. 1µCu ³H-thymidine/ml was added on day 4.

The mark [5] stands for this setting: Table 2, antagonistic analogues.
[6] abbreviates: DME Medium + 0% Serum (plus additives), Dose 1 ng/ml (6x10⁻¹⁰M).
Where [7] appears, read: DME Medium + 0% Serum (plus additives), Dose 10 ng/ml.
The mark [8] stands for this setting: DME Medium + 0% Serum (plus additives), Dose 100 ng/ml.
The mark [9] stands for this setting: DME Medium + 0% Serum (plus additives), Dose 1000 ng/ml.
Where [10] appears, read: DME Medium + 0% Serum (plus additives), Dose 2000 ng/ml.
[11] abbreviates: DME Medium + 10% Serum, Dose 1 ng/ml (6x10⁻¹⁰M).
Where [12] appears, read: DME Medium + 10% Serum, Dose 10 ng/ml.
The mark [13] stands for this setting: DME Medium + 10% Serum, Dose 100 ng/ml.
[14] abbreviates: DME Medium + 10% Serum, Dose 1000 ng/ml.
[15] abbreviates: DME Medium + 10% Serum, Dose 2000 ng/ml.

Regarding “pGlu-His-Trp-Ser-Tyr-D-Lys[(Cu⁺⁺)(SAL) 2(A₂pr)]-Leu-Arg-Pro-Gly-NH₂ [VIA]”, the “Hormonal activity* LH responses rel. to LHRH (= 1)” value in assay [1] came out at 12. Besides, the “Binding affinity, Ka1, for membrane receptors of cancer cells” value (“Binding affinity, Ka1 … of cancer cells” for short) in assay [2] (Table 1, agonistic analogues) is 1.348 nM⁻¹. The “Binding affinity, Ka1, for membrane receptors of pituitary” value (from here on “Binding affinity, Ka1 … of pituitary”) in assay [3] (Table 1, agonistic analogues) worked out at 3.051 nM⁻¹.
For “pGlu-His-Trp-Ser-Tyr-D-Lys[(Cu⁺⁺)(PEN) ₂(A₂pr)]-Leu-Arg-Pro-Gly-NH₂ [Example XXI]”, in that order: 10.6, 5.096 nM⁻¹ and 10.989 nM⁻¹.
As for “pGlu-His-Trp-Ser-Tyr-D-Lys[(Cu⁺⁺)(POL)₂(DL-A₂bu)]-Leu-Arg-Pro-Gly-NH₂ [XXV]”, the “Hormonal activity* LH responses rel. to LHRH (= 1)” value in assay [1] was 5.5. Also, the “Binding affinity, Ka1 … of cancer cells” value in assay [2] (Table 1, agonistic analogues) worked out at 3.141 nM⁻¹. Also, the “Binding affinity, Ka1 … of pituitary” value in assay [3] (Table 1, agonistic analogues) is listed as 6.405 nM⁻¹.
Regarding “pGlu-His-Trp-Ser-Tyr-D-Lys [(Ni⁺⁺)(CISAL)₂(D-A₂pr)]-Leu-Arg-Pro-Gly-NH₂ [Example X]”, the “Hormonal activity* LH responses rel. to LHRH (= 1)” value in assay [1] is 4. For the same substance, in assay [2] (Table 1, agonistic analogues), the “Binding affinity, Ka1 … of cancer cells” value was 2.236 nM⁻¹. In assay [3] (Table 1, agonistic analogues), the “Binding affinity, Ka1 … of pituitary” value came to 4.513 nM⁻¹.
For “pGlu-His-Trp-Ser-Tyr-D-Lys[(Cu⁺⁺)(FUR)₂(DL-A₂pr)]-Leu-Arg-Pro-Gly-NH₂ [XVII]”, in that order: 10, 0.536 nM⁻¹ and 1.770 nM⁻¹.
“Ac-D-Nal(2)D-Phe(4Cl)-D-Pal(3)-Ser-Arg-D-Lys[(Ni⁺⁺)(SAL)₂(DL-A₂pr)]-Leu-Arg-Pro-D-Ala-NH₂ [XIII]”: the “Binding affinity, Ka1 … of cancer cells” value in assay [2] (setting [5]) is reported as 0.878 nM-¹. Also, the “Binding affinity, Ka1 … of pituitary” value in assay [3] (setting [5]) worked out at 1.821 nM-¹.
Regarding “pGlu-His-Trp-Ser-Tyr-D-Lys[(PtCl₂)(DL-A₂pr)]-Leu-Arg-Pro-Gly-NH₂ [Example III]”, in assay [1], the “Hormonal activity* LH responses rel. to LHRH (= 1)” value is recorded as 55. Also, the “Binding affinity, Ka1 … of cancer cells” value in assay [2] (Table 1, agonistic analogues) stood at 1.743 nM⁻¹. In addition, in assay [3] (Table 1, agonistic analogues), the “Binding affinity, Ka1 … of pituitary” value was 3.285 nM⁻¹.
As for “Ac-D-Nal(2)-D-Phe(4Cl)-D-Pal(3)-Ser-Arg-D-Lys[(Cu⁺⁺)(SAL)₂(A₂bu-Eac)]-Leu-Arg-Pro-D-Ala-NH₂ [XXVIII]”, in assay [2] (setting [5]), the “Binding affinity, Ka1 … of cancer cells” value is 0.192 nM-¹.
Same read-out and setting: then “Ac-D-Nal(2)-D-Phe(4Cl)-D-Pal(3)-Ser-Arg-D-Lys[(PtCl₂)-A₂bu-Eac)]-Leu-Arg-Pro-D-Ala-NH₂ [XXVII]”, with 2.152 nM-¹.
For “pGlu-His-Trp-Ser-Tyr-D-Lys[Cu⁺⁺)(POLP) ₂(A₂pr)]-Leu-Arg-Pro-Gly-NH₂ [XIX]”, the “Hormonal activity* LH responses rel. to LHRH (= 1)” value in assay [1] is 0.3. In assay [2] (Table 1, agonistic analogues), the “Binding affinity, Ka1 … of cancer cells” value is on record as 4.528 nM⁻¹. The “Binding affinity, Ka1 … of pituitary” value in assay [3] (Table 1, agonistic analogues) is 8.676 nM⁻¹.
The corresponding values for “pGlu-His-Trp-Ser-Tyr-D-Lys[Cu⁺⁺) POL)₂(DL-A₂pr)]-Leu-Arg-Pro-Gly-NH₂ [XVIII]” are 9, 3.005 nM⁻¹ and 5.817 nM⁻¹.
For “pGlu-His-Trp-Ser-Tyr-D-Lys[(Cu²²)(CISAL)₂(DL-A₂pr)]-Leu-Arg-Pro-Gly-NH₂ [Example IX]”, in that order: 10, 3.995 nM⁻¹ and 8.625 nM⁻¹.
The corresponding values for “pGlu-His-Trp-Ser-Tyr-D-Lys[(Ni⁺⁺)(SAL) 2(A₂pr)]-Leu-Arg-Pro-Gly-NH₂ [VIIIA]” are 12, 5.234 nM⁻¹ and 9.710 nM⁻¹.
Turning to “pGlu-His-Trp-Ser-Tyr-D-Lys[(Cu⁺⁺)(SAL)₂(DL-A₂bu)]-Leu-Arg-Pro-Gly-NH₂ [XIV]”, the “Hormonal activity* LH responses rel. to LHRH (= 1)” value in assay [1] was determined as 25. In assay [2] (Table 1, agonistic analogues), the “Binding affinity, Ka1 … of cancer cells” value is reported as 1.628 nM⁻¹. In assay [3] (Table 1, agonistic analogues), the “Binding affinity, Ka1 … of pituitary” value is listed as 5.589 nM⁻¹.
For “pGlu-His-Trp-Ser-Tyr-D-Lys[(Ni⁺⁺)(SAL)₂(D-A₂pr)]-Leu-Arg-Pro-Gly-NH₂ [VIIIB]”, in that order: 10, 3.334 nM⁻¹ and 6.457 nM⁻¹.
For “pGlu-His-Trp-Ser-Tyr-D-Lys[(Cu⁺⁺)(POLP)₂(DL-A₂bu)]-Leu-Arg-Pro-Gly-NH₂ [Example XVI]”, in that order: 1.5, 5.038 nM⁻¹ and 9.751 nM⁻¹.
As a reminder, the %Inhibition is the relative decrease from the control value, in per cent. With “pGlu-His-Trp-Ser-Tyr-D-Lys[(Cu⁺⁺)(SAL) ₂(A₂pr)]-Leu-Arg-Pro-Gly-NH₂ [Example VII]”, the “Hormonal activity* LH responses rel. to LHRH (= 1)” value in assay [1] was found to be 10. In addition, in assay [2] (Table 1, agonistic analogues), the “Binding affinity, Ka1 … of cancer cells” value was 3.589 nM⁻¹. The “Binding affinity, Ka1 … of pituitary” value in assay [3] (Table 1, agonistic analogues) was determined as 7.968 nM⁻¹. The “%Inhibition” value in assay [4] (setting [6]) is given as 41%; in assay [4] (setting [7]), 42%; in assay [4] (setting [8]), 56%; in assay [4] (setting [9]), 52%; in assay [4] (setting [10]), 41%; in assay [4] (setting [11]) it was 53%. Further, the “%Inhibition” value is recorded as 61% in assay [4] (setting [12]), 59% in assay [4] (setting [13]), 65% in assay [4] (setting [14]) and 62% in assay [4] (setting [15]). Besides, the “DPM/Well x1000” value is given as 249+/-30.5 DPM/Well x1000 in assay [4] (setting [6]); 242+/-32.1 DPM/Well x1000 in assay [4] (setting [7]); 186+/-13.2 DPM/Well x1000 in assay [4] (setting [8]); 204+/-40.9 DPM/Well x1000 in assay [4] (setting [9]); 249+/-45.1 DPM/Well x1000 in assay [4] (setting [10]); 48+/-8.6 DPM/Well x1000 in assay [4] (setting [11]). Moreover, the “DPM/Well x1000” value in assay [4] (setting [12]) is reported as 40+/-6.7 DPM/Well x1000; in assay [4] (setting [13]), 42+/-10.4 DPM/Well x1000; in assay [4] (setting [14]), 36+/-5.1 DPM/Well x1000; in assay [4] (setting [15]) it was 39+/-4.6 DPM/Well x1000. Moreover, in assay [4] (at a concentration of 6x10.⁻¹⁰ M, total incubation time 5 days), the “inhibition of ³H-thymidine incorporation into DNA” value is listed as “strong inhibitory effect”.
